This experiment addresses recombinant human UAE (Homo sapiens (Human), UniProt P22314). In words: Ubiquitin Activating Enzyme (UAE) HTRF Assay. To be noted: read-out: % inhibition @0.111 μM. (In general: In TR-FRET formats the signal depends on donor and acceptor labels being close together.)

From patent publication US10202389B2, “Pyrazolopyrimidinyl inhibitors of ubiquitin-activating enzyme” (Millennium Pharmaceuticals, Inc., priority 2012, dated 2019) come the findings set out here.

SMILES strings stand for the structures.

recombinant human UAE, sequence (P22314 whole entry): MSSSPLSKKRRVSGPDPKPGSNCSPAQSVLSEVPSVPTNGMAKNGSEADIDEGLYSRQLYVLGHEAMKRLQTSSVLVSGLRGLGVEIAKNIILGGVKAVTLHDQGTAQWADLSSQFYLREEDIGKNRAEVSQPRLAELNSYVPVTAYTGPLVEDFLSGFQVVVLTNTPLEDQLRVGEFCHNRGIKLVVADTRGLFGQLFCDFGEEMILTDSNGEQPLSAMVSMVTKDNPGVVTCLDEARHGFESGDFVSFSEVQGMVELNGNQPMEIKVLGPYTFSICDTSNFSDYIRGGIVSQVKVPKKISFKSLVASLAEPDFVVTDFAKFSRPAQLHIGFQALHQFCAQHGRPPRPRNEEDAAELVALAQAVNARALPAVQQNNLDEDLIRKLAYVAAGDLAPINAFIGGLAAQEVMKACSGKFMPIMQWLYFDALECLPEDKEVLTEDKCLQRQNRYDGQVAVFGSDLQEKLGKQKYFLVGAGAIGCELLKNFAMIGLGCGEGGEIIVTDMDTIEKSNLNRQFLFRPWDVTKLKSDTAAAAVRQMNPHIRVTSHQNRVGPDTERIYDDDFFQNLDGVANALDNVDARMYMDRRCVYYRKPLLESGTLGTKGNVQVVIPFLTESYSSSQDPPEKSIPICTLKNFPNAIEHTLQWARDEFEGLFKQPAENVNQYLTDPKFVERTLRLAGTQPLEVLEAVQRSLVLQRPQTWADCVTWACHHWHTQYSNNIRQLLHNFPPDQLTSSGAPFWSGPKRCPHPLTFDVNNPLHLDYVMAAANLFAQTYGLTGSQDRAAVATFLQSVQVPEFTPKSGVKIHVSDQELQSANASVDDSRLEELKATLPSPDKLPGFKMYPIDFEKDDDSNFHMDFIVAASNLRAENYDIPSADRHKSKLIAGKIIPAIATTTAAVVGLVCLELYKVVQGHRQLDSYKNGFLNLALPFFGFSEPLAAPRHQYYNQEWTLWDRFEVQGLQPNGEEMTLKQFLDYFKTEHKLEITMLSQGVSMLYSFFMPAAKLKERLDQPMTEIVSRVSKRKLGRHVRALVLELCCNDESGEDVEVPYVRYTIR
Experimental: After incubation for 120 minutes, quantification of the FRET is performed on the Pherostar (BMG).
For compounds whose values are marked with an asterisk (*), mouse UAE was used. For all other compounds, human UAE was used.

Consider `NS(=O)(=O)OC[C@H]1C[C@@H](Nc2ccnc3cc(-c4ccc5ccccc5c4)nn23)[C@H](O)[C@@H]1O` (relative stereo) [Compound I-016, (rac)-((1R,2R,3S,4R)-2,3-dihydroxy-4-(2-(naphthalen-2-yl)pyrazolo[1,5-a]pyrimidin-7-ylamino)cyclopentyl)methyl rel-sulfamate], for which the inhibition (usually the change of the read-out against control, counted positive when it falls) at 0.111 µM was found to be 99%.

Turning to `NS(=O)(=O)OC[C@H]1C[C@@H](Nc2ccnc3cc(-c4cccc5cccnc45)nn23)[C@H](O)[C@@H]1O` (relative stereo) [Compound I-017, (rac)-((1R,2R,3S,4R)-2,3-Dihydroxy-4-((2-(quinolin-8-yl)pyrazolo[1,5-a]pyrimidin-7-yl)amino)cyclopentyl)methyl rel-sulfamate], the inhibition at 0.111 µM was found to be 100%.

Take `NS(=O)(=O)OC[C@H]1C[C@@H](Nc2ccnc3cc(-c4cncc5ccccc45)nn23)[C@H](O)[C@@H]1O` (relative stereo) [Compound I-018, (rac)-((1R,2R,3S,4R)-2,3-dihydroxy-4-(2-(isoquinolin-4-yl)pyrazolo[1,5-a]pyrimidin-7-ylamino)cyclopentyl)methyl rel-sulfamate]: the inhibition at 0.111 µM is 100%.

As to `NS(=O)(=O)OC[C@H]1C[C@@H](Nc2ccnc3cc(-c4ccc5oc6ccccc6c5c4)nn23)[C@H](O)[C@@H]1O` (relative stereo) [Compound I-019, (rac)-((1R,2R,3S,4R)-4-(2-(dibenzo[b,d]furan-2-yl)pyrazolo[1,5-a]pyrimidin-7-ylamino)-2,3-dihydroxycyclopentyl)methyl rel-sulfamate], the inhibition at 0.111 µM was 100%.

As to `COc1ccc(Cl)cc1-c1cc2nccc(N[C@@H]3C[C@H](COS(N)(=O)=O)[C@@H](O)[C@H]3O)n2n1` (relative stereo) [Compound I-020, (rac)-((1R,2R,3S,4R)-4-(2-(5-chloro-2-methoxyphenyl)pyrazolo[1,5-a]pyrimidin-7-ylamino)-2,3-dihydroxycyclopentyl)methyl rel-sulfamate], the inhibition at 0.111 µM worked out at 100%.

For `Cc1ccc(Cl)cc1-c1cc2nccc(N[C@@H]3C[C@H](COS(N)(=O)=O)[C@@H](O)[C@H]3O)n2n1` (relative stereo) [Compound I-021, (rac)-((1R,2R,3S,4R)-4-(2-(5-chloro-2-methylphenyl)pyrazolo[1,5-a]pyrimidin-7-ylamino)-2,3-dihydroxycyclopentyl)methyl rel-sulfamate], the inhibition at 0.111 µM is 97%.

As for `NS(=O)(=O)OC[C@H]1C[C@@H](Nc2ccnc3cc(-c4csc5ccccc45)nn23)[C@H](O)[C@@H]1O` (relative stereo) [Compound I-022, (rac)-((1R,2R,3S,4R)-4-(2-(benzo[b]thiophen-3-yl)pyrazolo[1,5-a]pyrimidin-7-ylamino)-2,3-dihydroxycyclopentyl)methyl rel-sulfamate], the inhibition at 0.111 µM was 100%.

`CC1(C)COc2c(-c3cc4nccc(N[C@@H]5C[C@H](COS(N)(=O)=O)[C@@H](O)[C@H]5O)n4n3)cccc21` (relative stereo) [Compound I-023, (rac)-((1R,2R,3S,4R)-4-(2-(3,3-dimethyl-2,3-dihydrobenzofuran-7-yl)pyrazolo[1,5-a]pyrimidin-7-ylamino)-2,3-dihydroxycyclopentyl)methyl rel-sulfamate]: the inhibition at 0.111 µM turned out to be 96%.

Turning to `NS(=O)(=O)OC[C@H]1C[C@@H](Nc2ccnc3cc(-c4cc5ccccc5[nH]4)nn23)[C@H](O)[C@@H]1O` (relative stereo) [Compound I-024, (rac)-((1R,2R,3S,4R)-4-(2-(1H-indol-2-yl)pyrazolo[1,5-a]pyrimidin-7-ylamino)-2,3-dihydroxycyclopentyl)methyl rel-sulfamate], the inhibition at 0.111 µM amounted to 98%.

As to `NS(=O)(=O)OC[C@H]1C[C@@H](Nc2ccnc3cc(-c4cnc5ccccc5c4)nn23)[C@H](O)[C@@H]1O` (relative stereo) [Compound I-025, (rac)-((1R,2R,3S,4R)-2,3-dihydroxy-4-(2-(quinolin-3-yl)pyrazolo[1,5-a]pyrimidin-7-ylamino)cyclopentyl)methyl rel-sulfamate], the inhibition at 0.111 µM stood at 93%.

Take `CC1(C)COc2ccc(-c3cc4nccc(N[C@@H]5C[C@H](COS(N)(=O)=O)[C@@H](O)[C@H]5O)n4n3)cc21` (relative stereo) [Compound I-026, (rac)-((1R,2R,3S,4R)-4-(2-(3,3-dimethyl-2,3-dihydrobenzofuran-5-yl)pyrazolo[1,5-a]pyrimidin-7-ylamino)-2,3-dihydroxycyclopentyl)methyl rel-sulfamate]: the inhibition at 0.111 µM is 100%.

Regarding `NS(=O)(=O)OC[C@H]1C[C@@H](Nc2ccnc3cc(-c4cccc5cnccc45)nn23)[C@H](O)[C@@H]1O` (relative stereo) [Compound I-027, (rac)-((1R,2R,3S,4R)-2,3-dihydroxy-4-(2-(isoquinolin-5-yl)pyrazolo[1,5-a]pyrimidin-7-ylamino)cyclopentyl)methyl rel-sulfamate], the inhibition at 0.111 µM came to 100%.

Take `NS(=O)(=O)OC[C@H]1C[C@@H](Nc2ccnc3cc(-c4cccc(Br)c4)nn23)[C@H](O)[C@@H]1O` (relative stereo) [Compound I-028, (rac)-((1R,2R,3S,4R)-4-((2-(3-Bromophenyl)pyrazolo[1,5-a]pyrimidin-7-yl)amino)-2,3-dihydroxycyclopentyl)methyl rel-sulfamate]: the inhibition at 0.111 µM stood at 99%.

Turning to `NS(=O)(=O)OC[C@H]1C[C@@H](Nc2ccnc3cc(-c4cc(C(F)(F)F)ccc4F)nn23)[C@H](O)[C@@H]1O` (relative stereo) [Compound I-029, (rac)-((1R,2R,3S,4R)-4-((2-(2-Fluoro-5-(trifluoromethyl)phenyl)pyrazolo[1,5-a]pyrimidin-7-yl)amino)-2,3-dihydroxycyclopentyl)methyl rel-sulfamate], the inhibition at 0.111 µM was determined as 100%.

As to `NS(=O)(=O)OC[C@H]1C[C@@H](Nc2ccnc3cc(-c4cc(C(F)(F)F)ccc4Cl)nn23)[C@H](O)[C@@H]1O` (relative stereo) [Compound I-030, (rac)-((1R,2R,3S,4R)-4-((2-(2-Chloro-5-(trifluoromethyl)phenyl)pyrazolo[1,5-a]pyrimidin-7-yl)amino)-2,3-dihydroxycyclopentyl)methyl rel-sulfamate], the inhibition at 0.111 µM was 99%.

As for `NS(=O)(=O)OC[C@H]1C[C@@H](Nc2ccnc3cc(-c4nc(-c5ccccc5)cs4)nn23)[C@H](O)[C@@H]1O` (relative stereo) [Compound I-031, (rac)-[(1R,2R,3S,4R)-2,3-dihydroxy-4-{[2-(4-phenyl-1,3-thiazol-2-yl)pyrazolo[1,5-a]pyrimidin-7-yl]amino}cyclopentyl]methyl rel-sulfamate], the inhibition at 0.111 µM worked out at 100%.

On to `NS(=O)(=O)OC[C@H]1C[C@@H](Nc2ccnc3cc(-c4c[nH]c5ccccc45)nn23)[C@H](O)[C@@H]1O` (relative stereo) [Compound I-032, (rac)-[(1R,2R,3S,4R)-2,3-dihydroxy-4-{[2-(1H-indol-3-yl)pyrazolo[1,5-a]pyrimidin-7-yl]amino}cyclopentyl]methyl rel-sulfamate], for which the inhibition at 0.111 µM stood at 100%.

`NS(=O)(=O)OC[C@H]1C[C@@H](Nc2ccnc3cc(-c4ccc(C(F)(F)F)c5cccnc45)nn23)[C@H](O)[C@@H]1O` (relative stereo) [Compound I-033, (rac)-((1R,2R,3S,4R)-2,3-dihydroxy-4-(2-(5-(trifluoromethyl)quinolin-8-yl)pyrazolo[1,5-a]pyrimidin-7-ylamino)cyclopentyl)methyl rel-sulfamate]: the inhibition at 0.111 µM turned out to be 98%.

Turning to `NS(=O)(=O)OC[C@H]1C[C@@H](Nc2ccnc3cc(-c4ccc5ncccc5c4)nn23)[C@H](O)[C@@H]1O` (relative stereo) [Compound I-034, (rac)-((1R,2R,3S,4R)-2,3-dihydroxy-4-(2-(quinolin-6-yl)pyrazolo[1,5-a]pyrimidin-7-ylamino)cyclopentyl)methyl rel-sulfamate], the inhibition at 0.111 µM turned out to be 100%.

`C[Si](C)(C)c1cccc(-c2cc3nccc(N[C@@H]4C[C@H](COS(N)(=O)=O)[C@@H](O)[C@H]4O)n3n2)c1` (relative stereo) [Compound I-035, (rac)-((1R,2R,3S,4R)-2,3-dihydroxy-4-(2-(3-(trimethylsilyl)phenyl)pyrazolo[1,5-a]pyrimidin-7-ylamino)cyclopentyl)methyl rel-sulfamate]: the inhibition at 0.111 µM turned out to be 100%.

Turning to `NS(=O)(=O)OC[C@H]1C[C@@H](Nc2ccnc3cc(-c4cccc(-c5ccccn5)c4)nn23)[C@H](O)[C@@H]1O` (relative stereo) [Compound I-036, (rac)-((1R,2R,3S,4R)-2,3-Dihydroxy-4-((2-(3-(pyridin-2-yl)phenyl)pyrazolo[1,5-a]pyrimidin-7-yl)amino)cyclopentyl)methyl rel-sulfamate], the inhibition at 0.111 µM was 100%.

`NS(=O)(=O)OC[C@H]1C[C@@H](Nc2ccnc3cc(-c4ccc5[nH]c6ccccc6c5c4)nn23)[C@H](O)[C@@H]1O` (relative stereo) [Compound I-037, (rac)-[(1R,2R,3S,4R)-4-{[2-(9H-carbazol-3-yl)pyrazolo[1,5-a]pyrimidin-7-yl]amino}-2,3-dihydroxycyclopentyl]methyl rel-sulfamate]: the inhibition at 0.111 µM was 100%.

Regarding `Cc1sc(-c2ccccc2)nc1-c1cc2nccc(N[C@@H]3C[C@H](COS(N)(=O)=O)[C@@H](O)[C@H]3O)n2n1` (relative stereo) [Compound I-038, (rac)-[(1R,2R,3S,4R)-2,3-dihydroxy-4-{[2-(5-methyl-2-phenyl-1,3-thiazol-4-yl)pyrazolo[1,5-a]pyrimidin-7-yl]amino}cyclopentyl]methyl rel-sulfamate], the inhibition at 0.111 µM came out at 100%.

As to `NS(=O)(=O)OC[C@H]1C[C@@H](Nc2ccnc3cc(-c4ccnc5cc(Cl)ccc45)nn23)[C@H](O)[C@@H]1O` (relative stereo) [Compound I-039, (rac)-((1R,2R,3S,4R)-4-(2-(7-chloroquinolin-4-yl)pyrazolo[1,5-a]pyrimidin-7-ylamino)-2,3-dihydroxycyclopentyl)methyl rel-sulfamate], the inhibition at 0.111 µM worked out at 100%.
